Legend:
S. typhimurium = assay: bactericidal activity, percent bacterial survival, S. typhimurium suspension; format: cell-based, Salmonella typhimurium; conditions: for Percentage S. typhimurium Survival at 3 hours: 20 mM Tris pH 8.0, 37° C.
Protocol: (§1) All tests in the following examples were performed at 37° C. The efficacy of the enhanced broad range bactericides was determined by assaying bactericidal activity as measured by the percent bacterial survival after treatment with the bactericide. Generally, after incubation of a 10^7 cell per ml suspension of target species with the novel bactericide for specified lengths of time, bacteria were collected by centrifugation for 2 minutes. […] Surviving bacteria were determined by scoring colony forming units (CFU) after incubation for 24-48 hours at 37° C.
The control (Test #1) is identical to the control of Example 1 (Table 1).

Staphyloccus aureus = assay: bactericidal activity, percent survival, Staphylococcus aureus; format: cell-based
Protocol: (§2) All tests in the following examples were performed at 37° C. The efficacy of the enhanced broad range bactericides was determined by assaying bactericidal activity as measured by the percent bacterial survival after treatment with the bactericide. Generally, after incubation of a 10^7 cell per ml suspension of target species with the novel bactericide for specified lengths of time, bacteria were collected by centrifugation for 2 minutes. […] Surviving bacteria were determined by scoring colony forming units (CFU) after incubation for 24-48 hours at 37° C. An effective bactericide according to this invention is one which allows less than 0.1% of the initial viable count of the bacteria to survive.
Incubations were performed in 50 mM sodium acetate buffer, pH 5.0 or 20 m
TrisHCl buffer, pH 8.0 at 37° C.

E. coli = assay: bactericidal activity, percent bacterial survival, E. coli suspension; format: cell-based, Escherichia coli; conditions: for Percentage E. coli Survival at 2 hours: 20 mM Tris pH 8.0, 37° C.
Protocol: as §1
The effects of the bactericide were measured as a function of percentage bacteria survival after 2 hours.
Incubations were performed in 20 mM Tris, pH 7.0 at 37° C.

[1] = tested on: S. typhimurium on chicken muscle; assay: bactericidal activity towards S. typhimurium on chicken muscle (unadhered cells); format: cell-based, Salmonella typhimurium
Protocol: as §2
Incubations were performed in either 50 mM sodium acetate, pH 5.0, or 20 mM […], pH 8.0 at 37° C.
Cubes of chicken muscle were cleansed with sodium hypochlorite and povidone iodine prior to use. To inoculate the tissue, the cubes of chicken muscle were dipped into a 10^8 cells/ml suspension of S. typhimurium in 20 mM Tris HCl, pH 8.0. Excess moisture was removed from dipped cubes by tapping. The chicken samples were placed into sufficient buffer containing the nisin composition to cover the tissue and incubated for 2 hours at 37° C. after which the tissue was removed to sufficient Phage buffer to cover the tissue. The bacteria remaining in the test solution were collected by centrifugation, washed with Phage buffer, and combined with bacteria washed from the tissue by Phage buffer. The combined samples (termed "unadhered" cells) were serially diluted and 100μl aliquots were plated for determination of surviving bacteria.
(§3) Cubes of chicken muscle were cleansed with sodium hypochlorite and povidone iodine prior to use. To inoculate the tissue, the cubes of chicken muscle were dipped into a 10^8 cells/ml suspension of S. typhimurium in 20 mM Tris HCl, pH 8.0. Excess moisture was removed from dipped cubes by tapping. The tissue was placed into sufficient buffer containing the nisin compositions to cover the tissue, and incubated for 2 hours at 37° C. after which the tissue was removed to sufficient Phage buffer to cover the tissue. The bacteria remaining in the test solution were collected by centrifugation, washed with Phage buffer, and combined with bacteria washed from the tissue by Phage buffer. The combined samples (termed "unadhered" cells) were serially diluted and 100 μl aliquots were plated for determination of surviving bacteria.
as §3, with “cleaned” for “cleansed”, “with” for “with sodium”, “50” for “20”, “sodium acetate buffer,” for “Tris HCl,”, “5.0.” for “8.0.”, “containing” for “containing the”

Coryneform bacteria = assay: bactericidal activity, percent survival, axillary Coryneform bacteria; format: cell-based; conditions: 20 mM Tris-HCl pH 8.0
Protocol: as §2
(§4) Incubations were performed in 20 mM TrisHCl, pH 8.0 at 37° C.

Streptococcus mutans [2] = assay: bactericidal activity, percent survival, Streptococcus mutans in Tris buffer; format: cell-based; conditions: for % Survival (S. mutans kinetics): nisin 0, 1.0 mM EDTA, Tris-HCl pH 7.3
Protocol: (§6) All tests in the following examples were performed at 37° C. The efficacy of the enhanced broad range bactericides was determined by assaying bactericidal activity as measured by the percent bacterial survival after treatment with the bactericide. Generally, after incubation of a 10^7 cell per ml suspension of target species with the novel bactericide for specified lengths of time, bacteria were collected by centrifugation for 2 minutes. The bacterial pellet was washed free of the bactericide with a rescue buffer, termed herein Phage buffer (50 mM Tris-HCl buffer pH 7.8, 1 mM MgSO4, 4 mM CaCl2, 0.1 M Nacl, and 0.1% gelatin), resuspended and serially diluted into Phage buffer, and 100 μl of the suspended bacteria were spread on nutrient agar plates. Surviving bacteria were determined by scoring colony forming units (CFU) after incubation for 24-48 hours at 37° C.
The suspensions were incubated for various times ranging from 0.5 to 60 minutes with the bactericides. The bactericidal efficacy of the bactericides was estimated by determining the percent survival of bacteria.
Incubations were performed in 20 mM TrisHCl, pH 7.3 at 37° C.

K. pneumoniae = assay: bactericidal activity, percent bacterial survival, K. pneumoniae suspension; format: cell-based, Klebsiella pneumoniae; conditions: 20 mM Tris pH 8.0, 37° C.
Protocol: as §1
The effect was measured as a function of percentage bacterial survival after 2 hours.

Listeria monocytogenes [3] = assay: bactericidal activity, percent survival, Listeria monocytogenes in Tris buffer; format: cell-based; conditions: 20 mM Tris-HCl pH 8.0
Protocol: as §2, §4

Streptococcus agalactiae = assay: bactericidal activity towards Streptococcus agalactiae in milk; format: cell-based
Protocol: as §2
However, the combination of the two agents, 0.1% monolaurin and nisin 0.2 μg/ml, is extremely potent towards S. agalactiae. […] Thus, when the application of nisin is limited by its available activity, a bactericide comprising nisin with a surfactant can be expected to be more useful.
(§5) Incubations were in milk at 37° C.

Listeria monocytogenes [4] = assay: bactericidal activity towards Listeria monocytogenes in milk; format: cell-based
Protocol: as §2
An example of where the application of nisin is limited by its available activity is illustrated by the data in Table 15B.
as §5

Streptococcus mutans [5] = assay: rapid bactericidal activity towards Streptococcus mutans in the presence of divalent cation, 10% fetal calf serum; format: cell-based; conditions: nisin 3, no EDTA, CaCl3 0 mM
Protocol: as §6
Incubations performed in 10% Fetal Calf Serum at 37° C.

O=C([O-])CN(CCN(CC(=O)[O-])CC(=O)O)CC(=O)O.[Na+].[Na+] [EDTA]
% Survival at 2 hours (S. typhimurium) (S. typhimurium; nisin 0, EDTA 1.0 mM, BSA 1.0%, 20 mM Tris pH 8.0): 63% | % Survival at 2 hours (S. typhimurium) (S. typhimurium; nisin 0, EDTA 2.0 mM, 20 mM Tris pH 8.0): 8.7% | % Survival at 2 hours (S. typhimurium) (S. typhimurium; nisin 0, EDTA 2.0 mM, 50 mM sodium acetate pH 5.0): 38.7% | % Survival at 2 hours (S. typhimurium) (S. typhimurium; nisin 0, EDTA 10 mM, 20 mM Tris pH 8.0): 14% | % Survival at 2 hours (S. typhimurium) (S. typhimurium; nisin 0, EDTA 10 mM, 50 mM sodium acetate pH 5.0): 15.2% | Percentage S. typhimurium Survival at 3 hours (S. typhimurium; nisin 0, EDTA 20 mM): 2.5% | % Survival at 2 hours (S. typhimurium) (S. typhimurium; nisin 0, EDTA 50 mM, 20 mM Tris pH 8.0): 11.4% | % Survival at 2 hours (S. typhimurium) (S. typhimurium; nisin 0, EDTA 50 mM, 50 mM sodium acetate pH 5.0): 3.5% | % Survival at 2 hours (S. typhimurium) (S. typhimurium; nisin 0, EDTA 100 mM, 20 mM Tris pH 8.0): 45% | % Survival 2 hr (S. aureus) (Staphyloccus aureus; nisin 0, EDTA 0.3 mM, pH 8.0): 100% | % Survival 2 hr (S. aureus) (Staphyloccus aureus; nisin 0, EDTA 1.0 mM, pH 8.0): 81% | % Survival 2 hr (S. aureus) (Staphyloccus aureus; nisin 0, EDTA 3.0 mM, pH 5.0): 100% | % Survival 2 hr (S. aureus) (Staphyloccus aureus; nisin 0, EDTA 3.0 mM, pH 8.0): 100% | % Survival 2 hr (S. aureus) (Staphyloccus aureus; nisin 0, EDTA 10 mM, pH 8.0): 100% | % Survival 2 hr (S. aureus) (Staphyloccus aureus; nisin 0, EDTA 30 mM, pH 8.0): 100% | % survival at 1 min (E. coli) (E. coli; nisin 0, EDTA 1.0 mM, 20 mM Tris pH 7.0): 100% | % Survival at 2 hours ([1]; nisin 0, EDTA 1.0 mM, BSA 1.0%, pH 8.0): 27% | % Survival at 2 hours, unadhered cells ([1]; nisin 0, EDTA 10 mM, pH 5.0): 6.4% | % Survival at 2 hours, unadhered cells ([1]; nisin 0, EDTA 10 mM, pH 8.0): 5.2% | % Survival 2 hr (Coryneform bacteria) (Coryneform bacteria; nisin 0, EDTA 0.3 mM): 4.6% | % Survival 2 hr (Coryneform bacteria) (Coryneform bacteria; nisin 0, EDTA 1.0 mM): 3.6% | % Survival 2 hr (Coryneform bacteria) (Coryneform bacteria; nisin 0, EDTA 3.0 mM): 8% | % Survival 2 hr (Coryneform bacteria) (Coryneform bacteria; nisin 0, EDTA 10 mM): 36% | % Survival (S. mutans kinetics) (Streptococcus mutans [2]; incubation 3 min): 100% | % Survival (S. mutans kinetics) (Streptococcus mutans [2]; incubation 60 min): 100% | % Survival at 2 hours (K. pneumoniae) (K. pneumoniae; nisin 0, EDTA 20 mM): 22% | % Survival after 2 hr (L. monocytogenes) (Listeria monocytogenes [3]; nisin 0, EDTA 1.0 mM): 84%

CCCCCCCCCCCC(=O)OCC(O)CO (stereo not drawn) [Monolaurin, monolaurin]
bactericidal activity towards Streptococcus agalactiae (Streptococcus agalactiae; monolaurin at concentrations up to 0.1%): little significant bactericidal activity | % survival at 2 h (S. agalactiae) (Streptococcus agalactiae; nisin 0, monolaurin 0.01%, 37° C.): 100% | % survival at 2 h (S. agalactiae) (Streptococcus agalactiae; nisin 0, monolaurin 0.1%, 37° C.): 4.5%

Triton X-100
Percentage E. coli Survival at 2 hours (E. coli; nisin 0, EDTA 0, Triton X-100 1.0%): 100% | bactericidal activity towards E. coli (E. coli; tests #3 and #4, Table 4): no significant bactericidal activity

monooleate
bactericidal activity towards L. monocytogenes (Listeria monocytogenes [4]; monooleate by itself): no bactericidal activity | % Survival 2 hr (L. monocytogenes) (Listeria monocytogenes [4]; nisin 0, monooleate 0.1%, 37° C.): 67% | % Survival 2 hr (L. monocytogenes) (Listeria monocytogenes [4]; nisin 0, monooleate 1.0%, 37° C.): 63%

nisin
% Survival at 2 hours (S. typhimurium) (S. typhimurium; Table 8 test 1: nisin 10 μg/ml, EDTA 0, BSA 0): 51.3% | % Survival at 2 hours (S. typhimurium) (S. typhimurium; Table 8 test 1: nisin 100 μg/ml, EDTA 0, BSA 0): 1.6% | Percentage S. typhimurium Survival at 3 hours (S. typhimurium; nisin 10 μg/ml, EDTA 0 mM): 51.3% | Percentage S. typhimurium Survival at 3 hours (S. typhimurium; nisin 50 μg/ml, EDTA 0 mM): 7.0% | % Survival at 2 hours (S. typhimurium) (S. typhimurium; nisin 100 μg/ml, EDTA 0, 20 mM Tris pH 8.0 (Table 6)): 4% | % Survival at 2 hours (S. typhimurium) (S. typhimurium; nisin 100 μg/ml, EDTA 0, 50 mM sodium acetate pH 5.0): 0.6% | Percentage S. typhimurium Survival at 3 hours (S. typhimurium; nisin 100 μg/ml, EDTA 0 mM): 1.6% | % survival at 1 min. (S. mutans) (Streptococcus mutans [5]): 2.9% | % Survival 2 hr (L. monocytogenes) (Listeria monocytogenes [4]; nisin 100 μg/ml, monooleate 0, 37° C.): 0.56% | % Survival 2 hr (S. aureus) (Staphyloccus aureus; nisin 3.0 μg/ml, EDTA 0, pH 5.0): 0.6% | % Survival 2 hr (S. aureus) (Staphyloccus aureus; nisin 3.0 μg/ml, EDTA 0, pH 8.0): 7.4% | Percentage E. coli Survival at 2 hours (E. coli; nisin 30 μg/ml, EDTA 0, Triton X-100 0): 27% | Percentage E. coli Survival at 2 hours (E. coli; nisin 100 μg/ml, EDTA 0, Triton X-100 0): 25% | Percentage E. coli Survival at 2 hours (E. coli; nisin 300 μg/ml, EDTA 0, Triton X-100 0): 8.5% | % Survival at 2 hours, unadhered cells ([1]; nisin 300 μg/ml, EDTA 0, pH 5.0): 0.1% | % Survival at 2 hours, unadhered cells ([1]; nisin 300 μg/ml, EDTA 0, pH 8.0): 7.5% | % Survival at 2 hours, unadhered cells ([1]; nisin 300 μg/ml, EDTA 0, pH 8.0, contains 1% BSA): 0.02% | % Survival 2 hr (Coryneform bacteria) (Coryneform bacteria; nisin 3 μg/ml, EDTA 0): 0.22% | % Survival after 2 hr (S. mutans) (Streptococcus mutans [2]; nisin 0.1 μg/ml, EDTA 0, 20 mM Tris-HCl pH 8.0): 4.3% | % Survival at 2 hours (K. pneumoniae) (K. pneumoniae; nisin 100 μg/ml, EDTA 0): 50% | % Survival at 2 hours (K. pneumoniae) (K. pneumoniae; nisin 300 μg/ml, EDTA 0): 38% | % Survival after 2 hr (L. monocytogenes) (Listeria monocytogenes [3]; nisin 3.0 μg/ml, EDTA 0): 0.71% | % survival at 2 h (S. agalactiae) (Streptococcus agalactiae; nisin 0.02 μg/ml, monolaurin 0, 37° C.): 100% | % survival at 2 h (S. agalactiae) (Streptococcus agalactiae; nisin 0.2 μg/ml, monolaurin 0, 37° C.): 2.2% | bactericidal activity towards Streptococcus agalactiae (Streptococcus agalactiae; nisin at concentrations up to 0.2 μg/ml): does not exhibit significant bactericidal activity
